Values after ≈ are worked out from the molar mass of the structure shown. Where two headings read alike, the source gives them in different places.
How the values were obtained:
[1] = target: T1, MAGE-A11:PCF11 interaction (GST-MAGE-A11 MHD and FAM-PCF11_4) (Homo sapiens, UniProt P43364); assay: TR-FRET dose response test of compounds for disruption of MAGE-A11:PCF11 binding
T1 construct: GST-MAGE-A11 MHD (human MAGE-A11 MHD amino acid 218-429); made in house; host or cells: E. coli BL21(DE3)
T1 sequence (P43364 218-429): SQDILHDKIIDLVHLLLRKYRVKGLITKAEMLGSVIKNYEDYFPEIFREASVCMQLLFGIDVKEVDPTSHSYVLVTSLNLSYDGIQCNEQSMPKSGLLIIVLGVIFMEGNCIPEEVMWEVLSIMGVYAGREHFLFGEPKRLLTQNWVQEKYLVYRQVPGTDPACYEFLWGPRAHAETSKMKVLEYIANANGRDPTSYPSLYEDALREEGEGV
Outline: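 Competition of compounds against binding of FAM-PCF11_4 peptide to GST-MAGE-A11 MHD, detected with Tb-anti-GST, in 50 mM Tris pH 7.5, 20 mM MgCl2, 0.1 mg/ml BSA, 1 mM DTT. 90 min at ~25 °C; 520/490 nm emission ratio (340 nm excitation) fitted for IC50.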

[2] = Solubility assay (μSOL Evolution); format: physicochemical; conditions: 18 h at RT
Method: Solubility assays were carried out on a Biomek FX lab automation workstation (Beckman Coulter, Inc., Fullerton, CA) using μSOL Evolution software (pION Inc., Woburn, MA). The detailed method is described as follows. 10 µl of 10 mM compound stock (in DMSO) was added to 190 μl 1-propanol to make a reference stock plate. In total, 5 µl from this reference stock plate were mixed with 70 µl 1-propanol and 75 µl citrate phosphate-buffered saline (PBS; isotonic) to make the reference plate, and the UV spectrum (250–500 nm) of the reference plate was read. In total, 6 µl of 10 mM test compound stock was added to 594 µl buffer in a 96-well storage plate and mixed. The storage plate was sealed and incubated at RT for 18 h. The suspension was then filtered through a 96-well filter plate (pION Inc., Woburn, MA). In all, 75 µl of filtrate was mixed with 75 µl 1-propanol to make the sample plate, and the UV spectrum of the sample plate was read. Calculations were carried out with μSOL Evolution software based on the area under the curve (AUC) of the UV spectrum of the sample and reference plates. All compounds were tested in triplicate.

[3] = tested on: Caco-2 cells; assay: High throughput Caco-2 permeability; format: in vitro ADME; conditions: 10 µmol/l, 2 h; for Papp A→B: apical to basolateral; for Papp B→A: basolateral to apical
Method: High throughput Caco-2 permeability was performed in the TranswellR 0.4 µm polycarbonate membrane 96-well system with modified methods. Caco-2 cells were maintained at 37 °C in a humidified incubator with an atmosphere of 5% CO2. The cells were cultured in 75 cm^2 flasks with Dulbecco’s Modified Eagle’s Medium (DMEM) containing 10% (v/v) FBS, 1% (v/v) non-essential amino acids (NEAA), 100 units/ml of penicillin, and 100 µg/ml of streptomycin. The Caco-2 cells were seeded onto inserts at a density of 2 × 10^4 cells/insert separately. The medium in the wells was exchanged each other day, and the trans epithelial electrical resistance (TEER) value was measured using an epithelial voltohm meter (Millipore, Billerica, Massachusetts). […] For transport experiments, each cultured monolayer on the 96-well plate was washed twice with a transport buffer (HBSS containing 25 mM HEPES, pH 7.4). The permeability assay was initiated by the addition of each compound solution (10 µmol/l) into inserts (apical side, A) or receivers (basolateral side, B). The Caco-2 cell monolayers were incubated for 2 h at 37 °C. Fractions were collected from receivers (if apical to basal permeability) or inserts (if basal to apical permeability), and concentrations were assessed by UPLC/MS (Waters; Milford, MA). All compounds were tested in triplicates. The A → B (or B → A) apparent permeability coefficients (Papp) of each compound were calculated using the equation, Papp = dQ/dt × 1/AC0, where dQ/dt equals the flux of a drug across the monolayer, A equals the total insert well surface area, and C0 is the initial concentration of substrate in the donor compartment. The efflux ratio was determined by dividing the Papp in the B-A direction by the Papp in the A-B direction.

[4] = Dose response TR-FRET screening of nine scaffold groups against MAGE-A11:PCF11, read-out: consensus IC50
[5] = Supplementary Data 4, read-out: TR-FRET, IC50

For COc1ccc2cc(C3Nc4ccccc4C(=O)N3CCCN3CCOCC3)ccc2c1 (stereo not shown) [SJ000803763-1], which IC50 [1, 4] is on record?
The IC50 was 67.4 µM.

For O=C1c2ccccc2NC(c2ccc(F)c(Br)c2)N1CCCN1CCOCC1 (stereo not shown) [SJ000803764-1], which IC50 [1, 4] is on record?
The IC50 was 68 µM.

With CN(C)c1ccc(C2Nc3ccccc3C(=O)N2CCCN2CCOCC2)cc1 (stereo not shown) [SJ000803767-1] as the compound, how does the IC50 [1, 4] read?
The IC50 was > 70 µM.

Which IC50 [1, 4] does the source give for Cc1ccc(C2Nc3ccccc3C(=O)N2CCCN2CCOCC2)cc1 (stereo not shown) [SJ000803768-1] here?
The IC50 was 65.9 µM.

With CCCn1c(=O)c2[nH]c(-c3ccccc3)nc2n(CCC)c1=O [SJ000832251-1] as the compound, how does the IC50 [1, 4] read?
Its IC50 is > 70 µM.

Which IC50 [1, 4] does the source give for C=CCn1c(=O)c2c(nc(-c3ccccc3)n2C)n(C)c1=O [SJ000832270-1] here?
Its IC50 is > 70 µM.

With Brc1ccc2c(NCCCNCc3ccc4[nH]ccc4c3)ccnc2c1 [SJ001008065-01] as the compound, how does the “Solubility” value [2] read?
Its value is 57.14 µM (≈ 23.4 µg/mL).

What about the Papp A→B [3] of the same compound?
Its Papp A→B is 18.3 ×10⁻⁶ cm/s.

What about the Papp B→A [3] of the same compound?
The Papp B→A was 19.3 ×10⁻⁶ cm/s.

And the IC50 [1, 5]?
The IC50 was 0.62 µM.

With CC(C)(C)c1ccc(-c2ccc3c(NCCCNCc4ccc5[nH]ccc5c4)ccnc3c2)cc1 [SJ001008068-01] as the compound, how does the “Solubility” value [2] read?
The value was 0.67 µM (≈ 0.31 µg/mL).

And the Papp A→B [3]?
The Papp A→B was 0.368 ×10⁻⁶ cm/s.

What about the Papp B→A [3] of the same compound?
Its Papp B→A is 1.54 ×10⁻⁶ cm/s.

What about the IC50 [1, 5] of the same compound?
Its IC50 is 0.13 µM.

What does the source list for FC(F)(F)c1cc(-c2ccc3c(NCCCNCc4ccc5[nH]ccc5c4)ccnc3c2)cc(C(F)(F)F)c1 [SJ001008069-01]?
Solubility [2]: 0.12 µM (≈ 0.0651 µg/mL); Papp A→B [3]: 0.498 ×10⁻⁶ cm/s; Papp B→A [3]: 0.229 ×10⁻⁶ cm/s; IC50 [1, 5]: 0.2 µM

With C=CC(=O)N(CCCNc1ccnc2ccccc12)Cc1ccc2[nH]ccc2c1 [SJ001009807-01] as the compound, how does the “Solubility” value [2] read?
The value was 34.77 µM (≈ 13.4 µg/mL).

What about the Papp A→B [3] of the same compound?
The Papp A→B was 2.73 ×10⁻⁶ cm/s.

And the Papp B→A [3]?
The Papp B→A was 18.9 ×10⁻⁶ cm/s.

What about the IC50 [1, 5] of the same compound?
The IC50 was 3.5 µM.

— PMC7529893, “Structural basis for substrate recognition and chemical inhibition of oncogenic MAGE ubiquitin ligases” (Nature Communications, 2020)
